# Data reported in PMC2834880 (International journal of biological macromolecules, 2010).
# Entries after “also recorded” stand apart in the source; their conditions may differ. Like-named read-outs stand apart in the source and are kept apart here. Where no end group is shown, it is not given here.
# Experiments:
# [1] = target: purified F1 and membrane bound F1Fo E. coli ATP synthase (Escherichia coli, UniProt P0ABB4); assay: biochemical
# [2] = system: wild-type E. coli strain pBWU13.4/DK; assay type: cell-based, Escherichia coli
# [3] = system: E. coli strain pBWU13.4/DK8; assay type: cell-based, Escherichia coli
# [4] = succinate plates, limiting glucose, or LB media
# Chain of purified F1 and membrane bound F1Fo E. coli ATP synthase (P0ABB4 whole entry, looked up): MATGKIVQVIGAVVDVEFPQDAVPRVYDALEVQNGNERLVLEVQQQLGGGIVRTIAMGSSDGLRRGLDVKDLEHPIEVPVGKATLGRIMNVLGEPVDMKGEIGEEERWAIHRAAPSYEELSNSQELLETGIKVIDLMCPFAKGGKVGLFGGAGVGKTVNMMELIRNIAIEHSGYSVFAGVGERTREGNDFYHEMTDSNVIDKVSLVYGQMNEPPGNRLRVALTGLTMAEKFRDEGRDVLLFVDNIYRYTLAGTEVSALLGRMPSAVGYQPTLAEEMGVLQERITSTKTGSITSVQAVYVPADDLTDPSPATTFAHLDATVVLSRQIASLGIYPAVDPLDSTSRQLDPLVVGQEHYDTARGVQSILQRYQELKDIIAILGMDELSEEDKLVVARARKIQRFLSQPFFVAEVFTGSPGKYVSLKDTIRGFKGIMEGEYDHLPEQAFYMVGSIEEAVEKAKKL
compound,measurement,setting,value
"CC[C@H](C)[C@H](NC(=O)CN)C(=O)NCC(=O)N[C@@H](C)C(=O)N[C@H](C(=O)N[C@@H](CC(C)C)C(=O)N[C@@H](CCCCN)C(=O)N[C@H](C(=O)N[C@@H](CC(C)C)C(=O)N[C@H](C(=O)N[C@H](C(=O)NCC(=O)N[C@@H](CC(C)C)C(=O)N1CCC[C@H]1C(=O)N[C@@H](C)C(=O)N[C@@H](CC(C)C)C(=O)N[C@H](C(=O)N[C@@H](CO)C(=O)N[C@@H](Cc1c[nH]c2ccccc12)C(=O)N[C@H](C(=O)N[C@@H](CCCCN)C(=O)N[C@@H](CCCNC(=N)N)C(=O)N[C@@H](CCCCN)C(=O)N[C@@H](CCCNC(=N)N)C(=O)N[C@@H](CCC(N)=O)C(=O)N[C@@H](CCC(N)=O)C(N)=O)[C@@H](C)CC)[C@@H](C)CC)[C@@H](C)O)[C@@H](C)O)C(C)C)C(C)C [Melittin-NH2, reference compound]",IC50,[1],~4.68 µM
AIGSILGALAKGLPTLISWIKNR [MRP],IC50,[1],~4.77 µM
Ascaphin-8,growth of E. coli in presence of peptide,[2],no growth; also recorded: abrogated growth
same,ATPase inhibition (%),[1],59%
same,residual ATPase activity at maximal inhibition,[1],~ 41%
"Aurein 2.2: amphibian antimicrobial peptide, Litoria aurea, 16 residues (GLFDIVKKVVGALGSL-NH2)",growth of E. coli in presence of peptide,[2]; [4],no growth; also recorded: abrogated growth
same,Growth yield on limiting glucose (%),[3],12%
same,more inhibition of ATPase than aurein 2.3,[1]; Leu-13 (aurein 2.2) instead of Ile-13 (aurein 2.3),~ 40%
"Aurein 2.3: amphibian antimicrobial peptide, Litoria aurea, 16 residues (GLFDIVKKVVGAIGSL-NH2)",growth of E. coli in presence of peptide,[2]; [4],no growth; also recorded: abrogated growth
same,Growth yield on limiting glucose (%),[3],24%
"Caerin 1.8: amphibian antimicrobial peptide, Litoria chloris, 24 residues (GLFKVLGSVAKHLLPHVVPVIAEK)",growth of E. coli in presence of peptide,"[2]; succinate plates, limiting glucose, or LB media, listed as carein 1.8",did not affect growth
same,Growth yield on limiting glucose (%),[3],99%
Caerin 1.9,ATPase inhibition (%),[1],52%
same,maximal inhibition of ATPase activity,[1],~ 52%
Citropin 1.1,growth of E. coli in presence of peptide,[2],no growth; also recorded: abrogated growth
same,ATPase inhibition (%),[1],57%
same,residual ATPase activity at maximal inhibition,[1],~ 43%
Dermaseptin,growth of E. coli in presence of peptide,[2],no growth; also recorded: abrogated growth
same,ATPase inhibition (%),[1],26%
same,residual ATPase activity at maximal inhibition,[1],~ 74%
Magainin II,growth of E. coli in presence of peptide,[2],did not affect growth
same,ATPase inhibition (%),[1],20%
same,maximal inhibition of ATPase activity,[1],~ 20%
"XT-7: amphibian antimicrobial peptide, Xenopus tropicalis, 18 residues (GLLGPLLKIAAKVGSNLL)",growth of E. coli in presence of peptide,[2]; [4],did not affect growth
same,Growth yield on limiting glucose (%),[3],89%
